For experiment [1], the system named is BALB/c and SJL mice. The experiment in a line: Clinical manifestations of SLE in immunized mice (WBC, proteinuria, kidney analysis). Format: in vivo, mouse. Particulars: for W.B.C., white blood cell counts / proteinuria: five months after immunization; for number of white blood cells (in words): in comparison to non-immunized mice or p278-immunized mice. As to the method:
The erythrocyte sedimentation rate was determined by diluting the heparinized blood in PBS at a ratio of 1:1. The diluted blood was then passed to a microsampling pipette and the sedimentation was measured 6 hours later. White blood cell counts were determined after the hemolysis of heparinized blood. Proteinuria was measured in a semi-quantitative manner, using a Combistix kit (Ames, Stoke Poges, Slough, U.K.). Immunohistology was performed by incubation of fixed frozen cryostat sections with FITC-labeled antibodies to mouse Ig. Staining was visualized via use of a fluorescent microscope.
BALBtc and SJL mice were immunized with mAb 5G12 or with peptides Ia and IIIa, and five months later were checked by two criteria for manifestation of SLE: white blood cell count (WBC) and proteinuria.
(i) White blood cell count (WBC): The mice were bled, their blood was diluted 1:10 with 1% (vol/vol) acetic acid in order to eliminate the red blood cells, and white blood cells were counted under a normal light microscope.
Proteinuria: The urine of the mice was tested using combisticks (Combistix Kit, Ames) for the presence of protein.

Experiment [2] addresses T1, MHC class II products on splenic antigen-presenting cells (APC) (Mus musculus, UniProt P01921+P04228).
T1 construct: Splenic adherent cells (10^6/100 μl/tube) isolated from BALB/c, SJL, C3H.SW or C57BL/6 mice; from tissue; host or cells: mouse spleen adherent cells (BALB/c, SJL, C3H.SW, C57BL/6)
T1 sequence (P04228 24-256): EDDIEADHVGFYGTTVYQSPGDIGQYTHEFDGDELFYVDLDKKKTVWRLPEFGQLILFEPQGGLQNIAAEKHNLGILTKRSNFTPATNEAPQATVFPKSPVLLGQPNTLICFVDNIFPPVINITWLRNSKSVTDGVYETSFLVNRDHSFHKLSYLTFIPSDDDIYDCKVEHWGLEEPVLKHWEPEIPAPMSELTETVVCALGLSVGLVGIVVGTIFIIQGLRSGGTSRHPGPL
T1 sequence (P01921 28-265): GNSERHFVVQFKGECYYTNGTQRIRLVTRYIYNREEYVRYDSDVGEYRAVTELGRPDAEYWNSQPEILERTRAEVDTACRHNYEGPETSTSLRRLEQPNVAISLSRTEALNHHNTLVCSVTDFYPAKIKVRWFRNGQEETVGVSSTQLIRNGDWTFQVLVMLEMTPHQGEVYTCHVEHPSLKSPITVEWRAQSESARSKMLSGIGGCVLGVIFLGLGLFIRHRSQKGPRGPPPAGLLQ
As to the kind of experiment: Inhibition of peptide binding to APC by anti-Ia mAb. Particulars: BALB/c, H-2 d. Further details: concentration or dose not given beside the values. Here is the method: (§1) Spleen cells suspended in RPMI 1640 medium containing 10% FCS were incubated in Petri dishes for 60 min at 37° C. Thereafter, non-adherent cells were removed, the plates were washed, and the adherent cells were collected from the plates using a rubber policeman (Costar, Mass., USA). These cells (1×10^6/100 μl/tube) were incubated with the biotinylated peptides in PBS containing 0.1% BSA (high purity grade, Amresco, Ohio, USA) for 16 hr at 37° C., followed by incubation with phycoerythrin (PE)-streptavidin (Jackson ImmunoResearch) for 30 min at 4° C. Thereafter the samples were incubated with biotinylated anti-streptavidin (1:60, Vector Laboratories, Burlingame, Calif.) and for an additional period with PE-streptavidin, all for 30 min at 4° C. The cells were washed twice with cold PBS/BSA solution after each incubation. Thereafter, cells were analyzed by flow cytometry using the FACSort cytometer and CELLQuest software (Beckton-Dickinson, Mountain View, Calif.). […]
(§2) Binding of the CDR-based peptides Ia and IIIa to APC was determined as described in Materials and Methods herein and the results are shown in Table 2. […] The results are shown in Table 3: Inhibition of binding was specific and ranged from 60% to 100%.

The target of experiment [3] is T2, MHC class II products on splenic antigen-presenting cells (APC) (Mus musculus, UniProt P06345+P14437).
T2 construct: Splenic adherent cells (10^6/100 μl/tube) isolated from BALB/c, SJL, C3H.SW or C57BL/6 mice; from tissue; host or cells: mouse spleen adherent cells (BALB/c, SJL, C3H.SW, C57BL/6)
T2 sequence (P14437 1-233): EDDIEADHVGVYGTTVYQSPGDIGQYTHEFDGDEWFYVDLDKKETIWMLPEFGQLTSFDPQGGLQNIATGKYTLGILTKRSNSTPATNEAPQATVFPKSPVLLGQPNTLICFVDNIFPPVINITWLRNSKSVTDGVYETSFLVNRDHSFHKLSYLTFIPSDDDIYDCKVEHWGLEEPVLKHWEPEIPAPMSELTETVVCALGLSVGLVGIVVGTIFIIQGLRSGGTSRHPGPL
T2 sequence (P06345 28-263): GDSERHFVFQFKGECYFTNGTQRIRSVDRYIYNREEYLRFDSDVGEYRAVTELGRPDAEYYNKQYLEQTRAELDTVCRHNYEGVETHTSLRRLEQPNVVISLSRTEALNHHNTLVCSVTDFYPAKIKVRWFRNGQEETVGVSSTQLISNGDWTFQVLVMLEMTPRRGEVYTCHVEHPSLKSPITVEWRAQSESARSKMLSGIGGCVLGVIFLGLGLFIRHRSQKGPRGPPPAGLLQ
Described as above. Also noted: concentration or dose not given beside the values. The conditions noted are these: SJL, H-2 s. Here is the method: as §1, §2

Experiment [4] relates to peripheral blood lymphocytes (PBL). As to the kind of experiment: IL-2 production by PBL of SLE patients and healthy controls. Format: cell-based, human. Particulars: sample at 24 hr. Here is the method:
PBL from human SLE patients and of the appropriate control donors (2×10^5/well) were cultured in microtiter plates in enriched medium containing 10% pooled AB sera in the presence of the human or mouse monoclonal 16/6 Id antibody, in the presence of peptides of the invention or in the presence of phytohemagglutinin (PHA). The rate of proliferation was evaluated by the incorporation of ^3[H]-thymidine in the cell culture. Non-relevant peptides were used as specificity controls. Antigen and mitogen-stimulated cytokine production was quantitated in the supernatants of the above cultures using either the cytokine-dependent lines or the appropriate pairs of antibodies in ELISA assays. Inhibition of the proliferative responses was performed in vitro by adding increasing doses of the tested peptide analogs into the proliferative culture mixtures.
PBL were isolated from blood of SLE patients or healthy controls using ficol gradient, and were incubated as in Example 13. A sample of 50 μl was removed 24 hr after the assay was started, and incubated in the presence of IL-2 sensitive cells (CTLD) for 24 hr, after which ^3H-thymidine was added for 16 hr, and the plates were harvested and counted on a beta counter.

With “TGYYMQWVKQSPEKSLEWIG [peptide Ia]”, the entries for the “protein level in urine (in words)” value in experiment [1] (BALB/c mice) and in experiment [1] (SJL mice) were “High levels of protein” and “smaller increase in protein level”, respectively. Further, the “W.B.C., white blood cell counts” value in experiment [1] (BALB/c mice) was 3375 ± 350 per mm^3. For the same substance, the proteinuria was found to be 0.88 ± 0.076 g/L in experiment [1] (BALB/c mice) and 0.375 ± 0.04 g/L in experiment [1] (SJL mice). Moreover, in experiment [1], the “number of white blood cells (in words)” value is reported as “lower number of white blood cells”. The “% inhibition of binding to APC” value in experiment [2] (mAb anti I-A^b (34-5-3)) worked out at 0%; in experiment [2] (mAb anti I-A^d (MKD6)) it was 76.7%; in experiment [3] (mAb anti I-A^d (MKD6)), 0%; in experiment [3] (mAb anti I-A^s (10.3.6.2)), 100%. In addition, the “IL-2 production by PBL, actual number of responders” value in experiment [4] (SLE patients) is 5/32; in experiment [4] (healthy controls) it was 14/25. For the same substance, the “IL-2 production by PBL, percentage of responders” value in experiment [4] (SLE patients) came to 16%; in experiment [4] (healthy controls), 56%.

On to “YYYCARFLWEPYAMDYWGQGS (YYCARFLWEPYAMDYWGQGS) [peptide IIIa, based on the CDR3 region of the VH chain of mAb 5G12]”, for which the “W.B.C., white blood cell counts” value stood at 3325 ± 400 per mm^3 in experiment [1] (BALB/c mice) and 3300 ± 1343 per mm^3 in experiment [1] (SJL mice). Moreover, the figures for the proteinuria in experiment [1] (BALB/c mice) and in experiment [1] (SJL mice) were 0.30 ± 0.01 g/L and 0.9 ± 0.075 g/L, respectively. Besides, the “number of white blood cells (in words)” value in experiment [1] is reported as “lower number of white blood cells”. Further, the “% inhibition of binding to APC” value stood at 0% in experiment [2] (mAb anti I-A^b (34-5-3)), 100% in experiment [2] (mAb anti I-A^d (MKD6)), 0% in experiment [3] (mAb anti I-A^d (MKD6)) and 92.8% in experiment [3] (mAb anti I-A^s (10.3.6.2)). Moreover, the “IL-2 production by PBL, actual number of responders” value in experiment [4] (SLE patients) is given as 5/32; in experiment [4] (healthy controls) it was 16/25. The “IL-2 production by PBL, percentage of responders” value in experiment [4] (SLE patients) worked out at 16%; in experiment [4] (healthy controls), 64%.
